In patent publication US5489598A, “Cytoprotection utilizing aryltriazol-3-thiones” (Warner-Lambert Company, priority 1994, dated 1996):

Target: T1, Mac-1 (CD11b/CD18) (Homo sapiens, UniProt P05107+P11215)
T1 construct: methodology to isolate neutrophils from ethylenediaminetetraacetic acid (EDTA)-treated venous blood obtained from healthy human volunteers; endogenous in cells; host or cells: neutrophils (PMN) freshly isolated from venous blood of healthy human volunteers
Test: Human Neutrophil Mac-1 Adhesion Assay (PMN KLH)
Type: cell-based
Conditions: @ 33 μM; human neutrophils, FMLP-stimulated, KLH coated plates
Procedure: Protocol for Human Neutrophil Mac-1 Adhesion Assay
We evaluated several 5-aryltriazol-3-thiones utilizing methodology similar to that of Ferrante and Thong as described in J. Immunol. […] Namely, we utilized Ferrante and Thong's methodology to isolate neutrophils from ethylenediaminetetraacetic acid (EDTA)-treated venous blood obtained from healthy human volunteers. Keyhole limpet hemocyanin (KLH) coated microtiter plates were prepared as follows:
All pipetting was automated using the Cetus Pro/Pette (Perkin-Elmer; division of Applied Biosystems, Foster, Calif.). KLH, Megathura crenulata; Calbiochem-Novabiochem, La Jolla, Calif., was prepared at a concentration of 0.5 mg/mL in Dulbecco's PBS phosphate buffered saline (PBS) with CA++, pH 7.2 (DPBS).
Microtiter plates are prewashed with 50% EtOH for 1 hour at 37° C., then drained and blotted to dryness. Then 0.3 mL KLH solution was pipetted into each well of the 96 well microtiter plate, covered and incubated overnight at 37° C. Plates are then inverted to drain, blotted to dryness, washed with 0.3 mL cold D-PBS, drained, blotted to dryness, then stored at 4° C. until use.
Procedure for PMN KLH (Mac-1 Adhesion Assay)
On the Pro/Pette system, a treatment plate was placed in plate position 1 (P-1), buffer Micro.trof was placed in plate position 2 (P-2), and a single row of tips in a spare magazine are placed in the tip position on the carriage. Two hundred ten μL aliquots D-PBS are pipetted into all wells (105 μL using Cetus File #18, Micro.trof 3, no mixes, tip row H, no tip change, run twice). Drug plate was placed in plate position 2 (P-2). Donor drug plates were prepared to contain buffer or drug in appropriate wells. Thirty μL drug or D-PBS buffer are pipetted into appropriate wells in the treatment plate in position 1 (P-1) (Cetus File #17, one mix before and after, changing tips) from donor plate. Thirty μL of neutrophils (PMNs) (30 μL of 10^7 cells/mL) were next pipetted from either a Micro.trof 1, position 2 (P-2), or a row of 0.5 mL capacity microcentrifuge tubes (Sarstedt RIA vials) to plate 1 using Cetus File #18, changing tips, one mix (50 μL) before and after. Cells and drug were then incubated for 10 minutes at 37° C. Agonist (e.g., FMLP) or D-PBS buffer (30 μL) were next pipetted to appropriate wells using Cetus File #18 (Micro.trof) or Cetus File #42 (for plate to plate), changing tips and one mix before and after. Cell/drug/agonist mixture was then incubated for 60 minutes at 37° C. After the incubation period, the treatment plate is gently inverted to drain, blotted lightly to dryness on a paper towel. The treatment plate is then washed with 300 μL D-PBS buffer using Cetus File #18, using pump at slow speed, again inverted to drain, and again blotted to dryness. Adherent cells are stained by the addition of 150 μL D-PBS buffer to all wells, using Cetus File #18, Micro.trof 3 no tip change. […] The treatment plate is then incubated overnight at 37° C.
After overnight incubation, the treatment plate is gently inverted to drain, blotted to dryness on paper towel, then gently washed with 300 μL D-PBS buffer using Cetus File #18, using pump at slow sped. The treatment plate is then gently inverted to drain, and blotted to dryness. The washing of the treatment plate is repeated until all excess dye is removed.
The treatment plate is then covered and incubated for 60 minutes at 37° C. After the incubation, 150 μL 50% EtOH is added to each well of the treatment plate using Cetus File #18, Micro.trof 3, mixing three times, changing tips. […]
a. mean unstimulated cell control OD is determined and subtracted from all other values b. mean net stimulated, e.g., FMLP, control values are determined c. mean drug values are determined and percent drug inhibition vs. stimulus control are calculated as follows: [formula] d. IC50 determinations, plotting logdose vs. percent inhibition, are determined by linear regression analysis using the least squares method.

T1 sequence (P05107 23-769, other chains not shown): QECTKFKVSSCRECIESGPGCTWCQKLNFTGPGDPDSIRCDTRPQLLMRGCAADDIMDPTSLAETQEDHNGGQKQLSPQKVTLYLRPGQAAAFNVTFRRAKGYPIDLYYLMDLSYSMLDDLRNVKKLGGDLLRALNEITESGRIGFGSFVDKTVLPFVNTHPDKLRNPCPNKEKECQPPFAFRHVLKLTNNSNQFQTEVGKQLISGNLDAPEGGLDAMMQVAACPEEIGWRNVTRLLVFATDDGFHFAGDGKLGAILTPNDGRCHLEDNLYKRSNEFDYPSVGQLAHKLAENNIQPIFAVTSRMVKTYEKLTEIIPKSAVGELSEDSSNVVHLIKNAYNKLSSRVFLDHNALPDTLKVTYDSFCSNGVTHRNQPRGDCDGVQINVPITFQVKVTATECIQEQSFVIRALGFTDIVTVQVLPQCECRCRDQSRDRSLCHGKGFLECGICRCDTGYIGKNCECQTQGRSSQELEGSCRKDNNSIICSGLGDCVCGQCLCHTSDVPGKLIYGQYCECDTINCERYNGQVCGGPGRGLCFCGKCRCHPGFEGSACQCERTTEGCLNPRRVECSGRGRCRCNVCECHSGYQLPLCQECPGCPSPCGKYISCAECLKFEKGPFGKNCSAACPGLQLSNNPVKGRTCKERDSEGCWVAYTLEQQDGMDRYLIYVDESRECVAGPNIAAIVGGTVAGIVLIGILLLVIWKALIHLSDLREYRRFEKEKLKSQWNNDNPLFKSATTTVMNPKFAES

Point of comparison: `Nc1ccc(-c2n[nH]c(=S)n2-c2ccccc2)cc1` [Example 31, 5-(4-aminophenyl)-2,4-dihydro-4-phenyl-3H-[1,2,4]-triazol-3-thione], inhibition at 33 µM 15%. Against it:
- CNc1ccccc1-c1n[nH]c(=S)n1-c1ccccc1 [Example 37, 5-(2-methylaminophenyl)-4-phenyl-2,4-dihydro-[1,2,4]triazol-3-thione] — lower, 7%
- Nc1ccccc1-c1n[nH]c(=S)n1N [Example 39, 4-Amino-5-(2-aminophenyl)-2,4-dihydro-3H-[1,2,4]triazol-3-thione] — higher, 57%
- COc1cccc(-c2n[nH]c(=S)n2-c2ccccc2)c1 [Example 28, 5-(3-methoxyphenyl)-2,4-dihydro-4-phenyl-3H-[1,2,4]-triazol-3-thione] — higher, 60%
- Oc1ccc(-c2n[nH]c(=S)n2Cc2ccccc2)cc1 [Example 29, 5-(4-hydroxyphenyl)-2,4-dihydro-4-phenylmethyl-3H-[1,2,4]-triazol-3-thione] — higher, 42%
- Cn1c(-c2ccccc2N)n[nH]c1=S [Example 38, 5-(2-Aminophenyl)-2,4-dihydro-4-methyl-4H-[1,2,4]triazol-3-thione] — lower, -0.1%
- Nc1ccccc1-c1n[nH]c(=S)n1-c1ccccc1 [Example 35, 5-(aminophenyl)-2,4-dihydro-4-phenyl-3H-[1,2,4]-triazol-3-thione] — higher, 24%
- S=c1nc(-c2ccccc2)[nH][nH]1 [Example 34, 1,2-dihydro-5-phenyl-3H-[1,2,4]-triazol-3-thione] — higher, 58%
- Oc1ccc(-c2n[nH]c(=S)n2-c2ccccc2)cc1 [Example 27, 5-(4-hydroxyphenyl)-2,4-dihydro-4-phenyl-3H-[1,2,4]-triazol-3-thione] — lower, 6%
- CCn1c(-c2ccc(N)cc2)n[nH]c1=S [Example 2, 5-(4-aminophenyl)-4-ethyl-2,4-dihydro-[1,2,4]triazol-3-thione] — higher, 36.9%

Same assay, conditions: human neutrophils, FMLP-stimulated, KLH coated plates

Point of comparison: `CCn1c(-c2ccc(OC)cc2)n[nH]c1=S` [Example 11, 5-(4-methoxyphenyl)-4-ethyl-2,4-dihydro-[1,2,4]triazol-3-thione], IC50 1.6 µM. Against it:
- CCn1c(-c2cc(Cl)ccc2N)n[nH]c1=S [Example 6, 5-(2-amino-5-chlorophenyl)-4-ethyl-2,4-dihydro-[1,2,4]triazol-3-thione] — 2-fold lower, 0.8 µM
- Cc1ccccc1-c1n[nH]c(=S)n1-c1ccccc1 [Example 22, 5-(2-methylphenyl)-2,4-dihydro-4-phenyl-3H-[1,2,4]-triazol-3-thione] — 8-fold lower, 0.2 µM
- COc1ccccc1-c1n[nH]c(=S)n1-c1ccccc1 [Example 24, 5-(2-methoxyphenyl)-2,4-dihydro-4-phenyl-3H-[1,2,4]-triazol-3-thione] — 1.6-fold higher, 2.5 µM
- COc1ccc(-c2n[nH]c(=S)n2-c2ccccc2)cc1 [Example 33, 5-(4-methoxyphenyl)-2,4-dihydro-4-phenyl-3H-[1,2,4]-triazol-3-thione] — 2.6-fold higher, 4.1 µM
- CCn1c(-c2ccc(OC)c(OC)c2)n[nH]c1=S [Example 16, 5-(3,4-dimethoxyphenyl)-4-ethyl-2,4-dihydro-[1,2,4]triazol-3-thione] — 1.9-fold higher, 3.1 µM
- CCn1c(-c2ccc(O)cc2)n[nH]c1=S [Example 4, 5-(4-hydroxyphenyl)-4-ethyl-2,4-dihydro-[1,2,4]triazol-3-thione] — 4.9-fold higher, 7.8 µM
- Sc1nnc(-c2ccccc2)n1-c1ccccc1 [Example 23, 2,4-dihydro-4,5-diphenyl-3H-[1,2,4]-triazol-3-thione] — within 1.5-fold, 1.1 µM
- CCn1c(-c2ccc(Cl)cc2Cl)n[nH]c1=S [Example 12, 5-(2,4-chlorophenyl)-4-ethyl-2,4-dihydro-[1,2,4]triazol-3-thione] — within 1.5-fold, 2.1 µM
- CCn1c(S)nnc1-c1ccccc1O [Example 5, 5-(2-hydroxyphenyl)-4-ethyl-2,4-dihydro-[1,2,4]triazol-3-thione] — 2.7-fold higher, 4.3 µM
- CCn1c(-c2ccccc2N)n[nH]c1=S [Example 36, 5-(2-aminophenyl)-4-ethyl-2,4-dihydro-[1,2,4]triazol-3-thione] — 4-fold lower, 0.4 µM
- CCn1c(-c2cc(OC)c(OC)cc2N)n[nH]c1=S [Example 7, 5-(2-amino-4,5-dimethoxyphenyl)-4-ethyl-2,4-dihydro-[1,2,4]triazol-3-thione] — 4.4-fold higher, 7.1 µM
- COc1ccc(-c2n[nH]c(=S)n2-c2ccccc2)cc1OC [Example 26, 5-(3,4-dimethoxyphenyl)-2,4-dihydro-4-phenyl-3H-1,2,4-triazol-3-thione] — 2-fold lower, 0.8 µM
- COc1ccc(-c2n[nH]c(=S)n2C)cc1OC [Example 32, 5-(3,4-dimethoxyphenyl)-2,4-dihydro-4-methyl-3H-[1,2,4]-triazol-3-thione] — within 1.5-fold, 1.5 µM
- Sc1nnc(-c2ccccc2)n1Cc1ccccc1 [Example 25, 2,4-dihydro-5-phenyl-4-(phenylmethyl)-3H-[1,2,4]-triazol-3-thione] — 5.1-fold higher, 8.1 µM

Test system: gastric damage (acidified aspirin)
Test: Cytoprotection study: gastric damage by oral acidified aspirin
Type: in vivo, Sprague-Dawley rats
Conditions: Rattus norvegicus; 1 mg/kg PO, 15 min before oral acidified aspirin 288 mg/kg; female rats
Procedure: Protocol for Cytoprotection Studies
For all studies, random-bred, barrier-raised, SPF, female Sprague-Dawley rats (Charles River Laboratories, Portage, Mich.) weighing 180-300 g were used. Animals were acclimated for at least 1 week prior to the studies and housed in wire bottom cages supplied with macrofiltered fresh tap water and Purina Rat Chow #5012 (Purina Mills Inc., Richmond, Ind.) ad libitum. The animal rooms were kept at 22° C.±1° C. and 50% humidity.
All animals were food fasted for 24 hours and water deprived for 2 or more hours prior to treatment administration. For oral dosing, Aspirin (acetylsalicylic acid, Sigma, St. Louis, Mo.) was dissolved in an aqueous solution of 150 mM HCl (Takeucvhi K., Digestive Disease and Science, 35:178-185 (1990)). Misoprostol was used as a standard. The test compound was dissolved in double glass distilled water, normal saline USP (NS) or the misoprostol phosphate buffer vehicle. All oral doses of misoprostol and test compounds were administered in a volume of 1 mL/animal. All oral dosing was done by gavage using a 3 mL syringe attached to a […], 17 gauge gavage needle.
The test compounds were administered in 1 mL 15 minutes prior to treatment with an oral dose of acidified aspirin (288 mg/kg in 150 mM HCl) given in 1 mL. Stomachs were removed to assess gastric damage 30 minutes after exposure to the damaging agent. The stomach was isolated through a midline incision in the abdomen followed by clamping of the esophagus and duodenum. Seven milliliters of 10% formalin (Fisher Scientific, Fair Lawn, N.J.) was injected into the stomach which was then excised and submerged in formalin for at least 10 minutes. The stomach was then opened along the greater curvature and pinned flat and submerged in formalin overnight. After the forestomach and exterior blood vessels were trimmed away, the tissues were clarified with glycerol (E. M. Science, Gibbstown, N.J.) and flattened between Plexiglass plates. Gastric damage was measured with a Cambridge Instruments LTD., (Cambridge, UK) Quantimet 970 Image Analysis System. Hemorrhagic damage appeared as darkened areas on a background of lighter undamaged tissue. This darker area was detected and surface area measured by the image analyzer. In addition, the complete stomachs were also completely submerged in 0.1N solution of iodine (J. T. Baker Chemical Co., Phillipsburg, N.J.), and the total stomach surface area was determined. The system was calibrated prior to each use with a standard sample. The percent damage and percent protection was computed by the following equation: [formula]

Point of comparison: `COc1ccc(-c2n[nH]c(=S)n2C)cc1OC` [Example 32, 5-(3,4-dimethoxyphenyl)-2,4-dihydro-4-methyl-3H-[1,2,4]-triazol-3-thione], inhibition in vivo at 1 mg/kg 21.6%. Against it:
- CCn1c(-c2cc(Cl)ccc2N)n[nH]c1=S [Example 6, 5-(2-amino-5-chlorophenyl)-4-ethyl-2,4-dihydro-[1,2,4]triazol-3-thione] — higher, 55.1%
- CCn1c(-c2ccc(OC)c(OC)c2)n[nH]c1=S [Example 16, 5-(3,4-dimethoxyphenyl)-4-ethyl-2,4-dihydro-[1,2,4]triazol-3-thione] — higher, 62.2%
- Cn1c(-c2ccccc2N)n[nH]c1=S [Example 38, 5-(2-Aminophenyl)-2,4-dihydro-4-methyl-4H-[1,2,4]triazol-3-thione] — higher, 51.2%
- Sc1nnc(-c2ccccc2)n1-c1ccccc1 [Example 23, 2,4-dihydro-4,5-diphenyl-3H-[1,2,4]-triazol-3-thione] — lower, 21.4%
- CCn1c(-c2ccc(Cl)cc2Cl)n[nH]c1=S [Example 12, 5-(2,4-chlorophenyl)-4-ethyl-2,4-dihydro-[1,2,4]triazol-3-thione] — higher, 59.4%
- CCn1c(-c2ccccc2N)n[nH]c1=S [Example 36, 5-(2-aminophenyl)-4-ethyl-2,4-dihydro-[1,2,4]triazol-3-thione] — higher, 53.7%
- CCn1c(-c2ccc(OC)cc2)n[nH]c1=S [Example 11, 5-(4-methoxyphenyl)-4-ethyl-2,4-dihydro-[1,2,4]triazol-3-thione] — higher, 32.2%
